For 23 compounds, IC50 results are on record in US9394268B2, “(E)-1-(5-methoxy-2,2-dimethyl-2H-chromen-8-yl)-3-(4-methoxyphenyl)prop-2-en-1-one and analogs thereof, as well as preparation method and use thereof” (Sichuan University, priority 2012, dated 2016).

Assay type in all cases: cell-based
One experiment concerns HT29. The experiment can be described thus: Cell proliferative assay (MTT), HT29. The following applies: Homo sapiens, HT-29, 72 h incubation, read-out: IC50s HT29. Here is the method:
(§1) The synthesized compounds were evaluated for their cytotoxin activity against suspended tumor cells. These cells were seeded on 96-well plates and incubated for 24 h. Selected compounds were added at various doses and incubated for 72 h, MTT was then added, and the absorbance was measured at a wavelength of 590 nm. IC50 values are expressed as the mean±SEM from the dose-response curves of at least three independent experiments.

The next experiment deals with SW620. Nature of the experiment: Cell proliferative assay (MTT), SW620. The following applies: Homo sapiens, SW-620, 72 h incubation, read-out: IC50s SW620. Here is the method: as §1
Another experiment deals with HCT116. Nature of the experiment: Cell proliferative assay (MTT), HCT116. Conditions: Homo sapiens, HCT-116, 72 h incubation, read-out: IC50s HCT116. Here is the method: as §1
The test system of a further experiment is HepG2. The experiment can be described thus: Cell proliferative assay (MTT), HepG2. Conditions: Homo sapiens, 72 h incubation, read-out: IC50s HepG2. Put shortly: (§2)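 Cells were seeded and allowed 24 h before exposure to test compounds at various doses for 72 h. Viability was read by MTT absorbance at 590 nm, and IC50 values were taken from dose-response curves as mean±SEM of at least three independent experiments.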

Another experiment concerns K562. The experiment can be described thus: Cell proliferative assay (MTT), K562. Conditions: Homo sapiens, 72 h incubation, read-out: IC50s K562. Put shortly:
as §2

pIC50: −log10 of the molar value.

For the compound `COc1ccc(C(=O)/C=C/c2ccc(Br)cc2)c2c1C=CC(C)(C)O2` [SKLBC-8, (E)-3-(4-bromophenyl)-1-(5-methoxy-2,2-dimethyl-2H-chromen-8-yl)prop-2-en-1-one], the pIC50 in the experiment on HT29 is less than 5.00; in the experiment on SW620, less than 5.00; in the experiment with HCT116 it was 5.24; in the experiment on HepG2, less than 5.00; with K562, less than 5.00.
As for `COc1ccc(C(=O)/C=C/c2ccc(-c3ccccc3)cc2)c2c1C=CC(C)(C)O2` [SKLBC-11, (E)-3-([1,1′-biphenyl]-4-yl)-1-(5-methoxy-2,2-dimethyl-2H-chromen-8-yl)prop-2-en-1-one], the pIC50 in the experiment with HT29, in the experiment on SW620, with HCT116, in the experiment on HepG2 and in the experiment on K562 was less than 5.00 in each case.
In the case of `COc1ccc(C(=O)/C=C/c2ccc(N(c3ccccc3)c3ccccc3)cc2)c2c1C=CC(C)(C)O2` [SKLBC-13, (E)-3-(4-(diphenylamino)phenyl)-1-(5-methoxy-2,2-dimethyl-2H-chromen-8-yl)prop-2-en-1-one], the pIC50 in the experiment with HT29 was less than 5.00; in the experiment on SW620, less than 5.00; in the experiment on HCT116, 5.34; with HepG2, less than 5.00; in the experiment on K562, less than 5.00.
`COc1ccc(C(=O)/C=C/c2ccc(-n3ccnc3)cc2)c2c1C=CC(C)(C)O2` [SKLBC-15, (E)-3-(4-(1H-imidazol-1-yl)phenyl)-1-(5-methoxy-2,2-dimethyl-2H-chromen-8-yl)prop-2-en-1-one]: the pIC50 is 5.18 in the experiment with HT29; less than 5.00 with SW620; 5.09 with HCT116; less than 5.00 in the experiment with HepG2; less than 5.00 in the experiment on K562.
For `COc1ccc(C(=O)/C=C/c2ccc(C(F)(F)F)cc2)c2c1C=CC(C)(C)O2` [SKLBC-19, (E)-1-(5-methoxy-2,2-dimethyl-2H-chromen-8-yl)-3-(4-(trifluoromethyl)phenyl)prop-2-en-1-one], the pIC50 with HT29, in the experiment with SW620, in the experiment on HCT116, with HepG2 and with K562 was less than 5.00 throughout.
On to `COc1ccc(C(=O)/C=C/c2ccccc2)c2c1C=CC(C)(C)O2` [SKLBC-20, (E)-1-(5-methoxy-2,2-dimethyl-2H-chromen-8-yl)-3-phenylprop-2-en-1-one], for which the pIC50 with HT29, in the experiment on SW620, in the experiment on HCT116, in the experiment on HepG2 and in the experiment on K562 was less than 5.00 each time.
For `COc1ccc(/C=C/C(=O)c2ccc(OC)c3c2OC(C)(C)C=C3)cn1` [SKLBC-21, (E)-1-(5-methoxy-2,2-dimethyl-2H-chromen-8-yl)-3-(6-methoxypyridin-3-yl)prop-2-en-1-one], the pIC50 in the experiment on HT29, in the experiment with SW620, in the experiment with HCT116, in the experiment on HepG2 and with K562 was less than 5.00 each time.
As for `COc1ccc(C(=O)/C=C/c2ccc(O)cc2)c2c1C=CC(C)(C)O2` [SKLBC-22, (E)-3-(4-hydroxyphenyl)-1-(5-methoxy-2,2-dimethyl-2H-chromen-8-yl)prop-2-en-1-one], the pIC50 with HT29, in the experiment with SW620, in the experiment with HCT116, in the experiment with HepG2 and with K562 was less than 5.00 each time.
Take `COc1ccc(C(=O)/C=C/c2cccc(O)c2)c2c1C=CC(C)(C)O2` [SKLBC-23, (E)-3-(3-hydroxyphenyl)-1-(5-methoxy-2,2-dimethyl-2H-chromen-8-yl)prop-2-en-1-one]: the pIC50 in the experiment with HT29, in the experiment with SW620, in the experiment with HCT116, with HepG2 and in the experiment on K562 was less than 5.00 throughout.
As to `COc1ccc(C(=O)/C=C/c2ccc(OC)c(OC)c2OC)c2c1C=CC(C)(C)O2` [SKLBC-24, (E)-1-(5-methoxy-2,2-dimethyl-2H-chromen-8-yl)-3-(2,3,4-trimethoxyphenyl)prop-2-en-1-one], the pIC50 in the experiment with HT29, with SW620, in the experiment with HCT116, in the experiment on HepG2 and in the experiment on K562 was less than 5.00 throughout.
`COc1ccc(C(=O)/C=C/c2cccc(C(F)(F)F)c2)c2c1C=CC(C)(C)O2` [SKLBC-25, (E)-1-(5-methoxy-2,2-dimethyl-2H-chromen-8-yl)-3-(3-(trifluoromethyl)phenyl)prop-2-en-1-one]: the pIC50 in the experiment on HT29 is less than 5.00; with SW620, less than 5.00; with HCT116 it was 5.01; with HepG2, less than 5.00; with K562, less than 5.00.
As to `CCOc1cc(/C=C/C(=O)c2ccc(OC)c3c2OC(C)(C)C=C3)ccc1O` [SKLBC-26, (E)-3-(3-ethoxy-4-hydroxyphenyl)-1-(5-methoxy-2,2-dimethyl-2H-chromen-8-yl)prop-2-en-1-one], the pIC50 in the experiment with HT29, with SW620, in the experiment with HCT116, in the experiment on HepG2 and with K562 was less than 5.00 in each case.
Turning to `COc1ccc(C(=O)/C=C/c2ccsc2)c2c1C=CC(C)(C)O2` [SKLBC-27, (E)-1-(5-methoxy-2,2-dimethyl-2H-chromen-8-yl)-3-(thiophen-3-yl)prop-2-en-1-one], the pIC50 in the experiment on HT29, in the experiment with SW620, with HCT116, in the experiment on HepG2 and in the experiment on K562 was less than 5.00 throughout.
On to `COc1ccc(C(=O)/C=C/c2ccc(O)c(Br)c2)c2c1C=CC(C)(C)O2` [SKLBC-29, (E)-3-(3-bromo-4-hydroxyphenyl)-1-(5-methoxy-2,2-dimethyl-2H-chromen-8-yl)prop-2-en-1-one], for which the pIC50 in the experiment on HT29, in the experiment with SW620, with HCT116, with HepG2 and in the experiment with K562 was less than 5.00 throughout.
As for `COc1cc(/C=C/C(=O)c2ccc(OC)c3c2OC(C)(C)C=C3)cc(OC)c1O` [SKLBC-30, (E)-3-(4-hydroxy-3,5-dimethoxyphenyl)-1-(5-methoxy-2,2-dimethyl-2H-chromen-8-yl)prop-2-en-1-one], the pIC50 with HT29, with SW620, in the experiment on HCT116, in the experiment with HepG2 and with K562 was less than 5.00 each time.
For the compound `COc1ccc(C(=O)/C=C/c2ccco2)c2c1C=CC(C)(C)O2` [SKLBC-31, (E)-3-(furan-2-yl)-1-(5-methoxy-2,2-dimethyl-2H-chromen-8-yl)prop-2-en-1-one], the pIC50 in the experiment on HT29, in the experiment on SW620, with HCT116, in the experiment on HepG2 and in the experiment with K562 was less than 5.00 each time.
For `COc1ccc(C(=O)/C=C/c2cccc3ccccc23)c2c1C=CC(C)(C)O2` [SKLBC-32, (E)-1-(5-methoxy-2,2-dimethyl-2H-chromen-8-yl)-3-(naphthalen-1-yl)prop-2-en-1-one], the pIC50 in the experiment with HT29, in the experiment with SW620, in the experiment with HCT116, in the experiment on HepG2 and in the experiment on K562 was less than 5.00 in each case.
As for `COc1ccc(C(=O)/C=C/c2ccc(Cl)cc2)c2c1C=CC(C)(C)O2` [SKLBC-34, (E)-3-(4-chlorophenyl)-1-(5-methoxy-2,2-dimethyl-2H-chromen-8-yl)prop-2-en-1-one], the pIC50 in the experiment with HT29, in the experiment with SW620, with HCT116, in the experiment with HepG2 and in the experiment on K562 was less than 5.00 each time.
As for `COc1ccc(C(=O)/C=C/c2cccc(Cl)c2)c2c1C=CC(C)(C)O2` [SKLBC-35, (E)-3-(3-chlorophenyl)-1-(5-methoxy-2,2-dimethyl-2H-chromen-8-yl)prop-2-en-1-one], the pIC50 in the experiment with HT29, with SW620, in the experiment on HCT116, with HepG2 and in the experiment with K562 was less than 5.00 throughout.
Consider `COc1ccc(C(=O)/C=C/c2cccs2)c2c1C=CC(C)(C)O2` [SKLBC-36, (E)-1-(5-methoxy-2,2-dimethyl-2H-chromen-8-yl)-3-(thiophen-2-yl)prop-2-en-1-one], for which the pIC50 in the experiment with HT29, in the experiment on SW620, in the experiment on HCT116, in the experiment on HepG2 and in the experiment on K562 was less than 5.00 in each case.
With `COc1ccc(C(=O)/C=C/c2ccc(Cl)c(Cl)c2)c2c1C=CC(C)(C)O2` [SKLBC-37, (E)-3-(3,4-dichlorophenyl)-1-(5-methoxy-2,2-dimethyl-2H-chromen-8-yl)prop-2-en-1-one], the pIC50 in the experiment on HT29 is less than 5.00; in the experiment with SW620 it was less than 5.00; with HCT116, 5.03; with HepG2 it was less than 5.00; with K562, less than 5.00.
Take `COc1ccc(C(=O)/C=C/c2cc(Cl)ccc2O)c2c1C=CC(C)(C)O2` [SKLBC-38, (E)-3-(5-chloro-2-hydroxyphenyl)-1-(5-methoxy-2,2-dimethyl-2H-chromen-8-yl)prop-2-en-1-one]: the pIC50 in the experiment with HT29 is less than 5.00; in the experiment with SW620 it was less than 5.00; with HCT116 it was 5.28; in the experiment with HepG2 it was less than 5.00; in the experiment with K562, less than 5.00.
Consider `COc1ccc(C(=O)/C=C/c2ccccc2Cl)c2c1C=CC(C)(C)O2` [SKLBC-39, (E)-3-(2-chlorophenyl)-1-(5-methoxy-2,2-dimethyl-2H-chromen-8-yl)prop-2-en-1-one], for which the pIC50 in the experiment with HT29, in the experiment with SW620, with HCT116, with HepG2 and with K562 was less than 5.00 in each case.
